Values quoted from earlier work in patent US6214377A (Jenapharm GmbH, priority 1994, dated 2001).

What was measured:
[1] = human body
[2] = peroral administration

SMILES: COc1ccc2[nH]cc(CCNC(C)=O)c2c1 [melatonin, N-acetyl-5-methoxy-triptamine]
- half-life period [1]: about 30 minutes
- side effects of unphysiological overdose [2]: Increased spasmogenic situations, confusion, and sleeplessness
